#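 Growth conditions: 96-well plates. Treatment: test compound, 48 hours, 5 concentrations. Analysis: linear interpolation between bracketing concentrations; unreached endpoints set to highest concentration. GI50 marks 50% less growth. TGI: total growth inhibition.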
# Assays:
# Assay in all cases: NCI tumour cell line growth inhibition, 48 h
# UACC-257 melanoma = system: UACC-257 melanoma
# OVCAR-3 ovarian = system: OVCAR-3 ovarian
# HOP-92 NSCLC = system: HOP-92 NSCLC
# SK-OV-3 ovarian = system: SK-OV-3 ovarian
# UO-31 renal = system: UO-31 renal
# CAKI-1 renal = system: CAKI-1 renal
# K-562 leukemia = system: K-562 leukemia
# ACHN renal = system: ACHN renal
# MALME-3M melanoma = system: MALME-3M melanoma
# NCI-H522 lung = system: NCI-H522 lung
Structure (SMILES),TGI (UACC-257 melanoma),TGI (OVCAR-3 ovarian),TGI (HOP-92 NSCLC),TGI (SK-OV-3 ovarian),TGI (UO-31 renal),TGI (CAKI-1 renal),TGI (K-562 leukemia),TGI (ACHN renal),TGI (MALME-3M melanoma),TGI (NCI-H522 lung),GI50 (UACC-257 melanoma),GI50 (OVCAR-3 ovarian),GI50 (HOP-92 NSCLC),GI50 (SK-OV-3 ovarian),GI50 (UO-31 renal),GI50 (CAKI-1 renal),GI50 (K-562 leukemia),GI50 (ACHN renal),GI50 (MALME-3M melanoma),GI50 (NCI-H522 lung)
O=C1c2cccc3cc([N+](=O)[O-])cc(c23)C(=O)N1NC1=NCCN1,> 100 µM,> 100 µM,> 100 µM,> 100 µM,> 100 µM,> 100 µM,> 100 µM,> 100 µM,> 100 µM,> 100 µM,–,–,–,–,–,–,–,–,–,–
CC(C)N(C(=O)C12C3C4C5C3C1(C(=O)N(C(C)C)C(C)C)C5(C#N)C42)C(C)C (configuration not stated),> 100 µM,> 100 µM,> 100 µM,> 100 µM,> 100 µM,> 100 µM,73 µM,> 100 µM,> 100 µM,> 100 µM,–,–,–,–,–,–,–,–,–,–
O=C(/C=C/c1ccccc1)c1c[nH]c2ccccc2c1=O,15.1 µM,4.37 µM,13 µM,6.82 µM,14.7 µM,6.22 µM,54.8 µM,11.7 µM,27.1 µM,4.85 µM,3.56 µM,2.03 µM,3.9 µM,2.53 µM,3.26 µM,1.97 µM,2.74 µM,3.01 µM,8.81 µM,1.88 µM
Cc1csc(/C=N/NC(=O)c2nnn(-c3ccnc4c(C(F)(F)F)cccc34)c2C)c1,51.4 µM,> 100 µM,> 100 µM,> 100 µM,> 100 µM,> 100 µM,> 100 µM,> 100 µM,92.2 µM,> 100 µM,14 µM,90.3 µM,55.8 µM,28.7 µM,> 100 µM,64.6 µM,35 µM,63.8 µM,26.9 µM,28.7 µM
COc1cc2ccccc2c2cc([N+](=O)[O-])oc12,0.443 µM,5.41 µM,4.54 µM,> 71.7 µM,3.1 µM,> 100 µM,> 38.9 µM,–,0.418 µM,1.35 µM,–,–,–,–,–,–,–,–,–,–
Nc1ncnc2c1ncn2C1OC(CSC(F)(F)F)C(O)C1O (configuration not stated),> 100 µM,> 100 µM,> 100 µM,> 100 µM,> 100 µM,> 100 µM,> 100 µM,> 100 µM,> 100 µM,> 100 µM,–,–,–,–,–,–,–,–,–,–
CC[C@@]1(OC(=O)CN)C(=O)OCc2c1cc1n(c2=O)Cc2cc3cc4c(cc3nc2-1)OCO4,0.417 µM,0.412 µM,0.404 µM,0.0736 µM,0.111 µM,–,–,< 0.01 µM,0.459 µM,0.246 µM,< 0.0234 µM,< 0.0239 µM,< 0.01 µM,< 0.01 µM,< 0.01 µM,< 0.01 µM,< 0.01 µM,< 0.01 µM,< 0.01 µM,< 0.01 µM
CC1(C)OC(=O)[C@@](C)([C@H](O)c2ccccc2)O1,> 100 µM,> 100 µM,> 100 µM,> 100 µM,> 100 µM,> 100 µM,> 100 µM,> 100 µM,> 100 µM,> 100 µM,–,–,–,–,–,–,–,–,–,–
N#CC(C#N)=Cc1c(-c2ccccc2)[nH]c2ccccc12,> 64.7 µM,5.29 µM,> 100 µM,> 80.7 µM,> 75.6 µM,48.7 µM,> 100 µM,> 55.9 µM,> 100 µM,32.7 µM,23.9 µM,1.66 µM,5.6 µM,5.57 µM,11 µM,5.66 µM,0.478 µM,7.07 µM,15.8 µM,4.23 µM
O=S(=O)(Nc1cc(Br)c(O)c2ccccc12)c1ccc(F)cc1,3.58 µM,6.4 µM,4.54 µM,35.9 µM,11.6 µM,20.5 µM,8.28 µM,14.1 µM,3.84 µM,83.4 µM,1.87 µM,2.56 µM,1.95 µM,14.7 µM,2.15 µM,7.7 µM,3.19 µM,3.31 µM,2.03 µM,5.23 µM
NC1=NC(c2ccc(Cl)cc2)N(c2ccc(S(=O)(=O)Nc3ncccn3)cc2)C(N)=N1 (configuration not stated),> 100 µM,> 100 µM,> 100 µM,> 100 µM,> 100 µM,> 100 µM,> 100 µM,> 100 µM,> 100 µM,> 100 µM,–,–,–,–,–,–,–,–,–,–
N#CCCN(CCC#N)C(=O)c1cccc(C(=O)N(CCC#N)CCC#N)c1,> 100 µM,> 100 µM,> 100 µM,> 100 µM,> 100 µM,> 100 µM,> 100 µM,> 100 µM,> 100 µM,> 100 µM,–,–,–,–,–,–,–,–,–,–
COc1cc(/C=N/Nc2ncnc3c2cnn3C(C)C)ccc1O,> 25 µM,> 25 µM,4.99 µM,> 25 µM,17.3 µM,> 25 µM,> 25 µM,> 25 µM,> 25 µM,> 25 µM,14.9 µM,8.47 µM,0.357 µM,10.1 µM,3.56 µM,6.43 µM,7.2 µM,5.95 µM,15 µM,6.78 µM
O=C(c1ccccc1)C(c1ccccc1)C1(O)C(=O)Nc2ccccc21 (configuration not stated),> 100 µM,> 100 µM,> 100 µM,> 100 µM,> 100 µM,> 100 µM,> 100 µM,> 100 µM,> 100 µM,> 100 µM,–,–,–,–,–,–,–,–,–,–
COc1ccc(C2=Nc3ccccc3SC(C)C2)cc1 (configuration not stated),> 100 µM,> 100 µM,> 100 µM,> 100 µM,> 100 µM,> 100 µM,83.3 µM,> 100 µM,> 100 µM,> 100 µM,–,–,–,–,–,–,–,–,–,–
O=C(/C=C1\C(=O)N(Cc2ccc([N+](=O)[O-])cc2)c2ccccc21)c1ccc(OCCN2CCCCC2)cc1,3.57 µM,2.57 µM,2.37 µM,11.7 µM,2.7 µM,2.26 µM,2.2 µM,2.38 µM,2.74 µM,1.99 µM,1.95 µM,1.25 µM,1.07 µM,2.78 µM,1.4 µM,1.07 µM,0.415 µM,1.16 µM,1.22 µM,0.614 µM

# — PubChem BioAssay (NCI)
